# Test results reported in patent EP0139358B1, “N6-substituted diarylalkyl adenosines, processes for their production and pharmaceutical compositions comprising the same” (priority 1983, dated 1985).
# What was measured:
# Format in all cases: in vivo
# conscious rat = assay: Antihypertensive evaluation (AHP3): aortic blood pressure and heart rate; details: for Mμ.c. ↓ / HR ↑: conscious rat; for Mμ.c. ↓: decrease in mean arterial blood pressure; for HR ↑: heart rate increase
# Swiss-Webster male mice [1] = assay: Mouse Activity and Screen Test (MAST): inhibition of spontaneous locomotion (LI); details: for Inhibition of mouse locomotor activity: one hour prior to testing, vs vehicle
# male Swiss-Webster mice = assay: Analgesic evaluation: antiwrithing (AW) test, acetic acid; details: Mus musculus, sc, read-out: AW ED50
# Procedure: The antiwrithing (AW) test provides preliminary assessment of compounds with potential analgesic activity. The test is performed in male Swiss-Webster mice. Compounds are administered subcutaneously in aqueous 0.2% methylcellulose or other appropriate vehicles in volumes of 10 ml/kg. Dosages represent activity moiety.
# Acetic acid (0.6%, 10 ml/kg) is injected intraperitroneally 20 minutes after administration of the adenosine agonist. Writhing movements are counted for five minutes starting seven minutes after the acetic acid injection. Writhing is defined as abdominal constriction and stretching of the body and hind legs with concave arching of the back. […] EDso values are calculated by nonlinear regression analysis.
# Swiss-Webster male mice [2] = assay: Mouse Activity and Screen Test (MAST): screen test (ST); details: lowest dose at which an A rating (60-100%) is achieved, screen test; intraperitoneally
# Procedure: Treatments are administered intraperitoneally one hour prior to testing. […] Compounds are dissolved or suspended in 0.2% Methocel. Control animals are injected with Methocel.
# The compounds are identified in the Examples.
structure (smiles),measurement,setting,value
"OC[C@H]1O[C@@H](n2cnc3c(NCC(c4ccccc4)c4ccccc4)ncnc32)[C@H](O)[C@@H]1O [Example 1, N^6-(2,2-Diphenylethyl)adenosine]",Mμ.c. ↓,conscious rat; 1 mg/kg,16%
same,HR ↑,conscious rat; 1 mg/kg,<20%
same,Mμ.c. ↓,conscious rat; 3 mg/kg,20%
same,HR ↑,conscious rat; 3 mg/kg,<20%
same,Mμ.c. ↓,conscious rat; 10 mg/kg,20%
same,HR ↑,conscious rat; 10 mg/kg,<20%
same,Mμ.c. ↓,conscious rat; 30 mg/kg,35%
same,HR ↑,conscious rat; 30 mg/kg,<20%
same,minimal effective dose,"conscious rat; Rattus norvegicus, read-out: AHP3 BP LAD",1 mg/kg
same,Inhibition of mouse locomotor activity,Swiss-Webster male mice [1]; 10 mg/kg intraperitoneally,92%
same,Inhibition of mouse locomotor activity,Swiss-Webster male mice [1]; 30 mg/kg intraperitoneally,93%
same,Inhibition of mouse locomotor activity,Swiss-Webster male mice [1]; 100 mg/kg intraperitoneally,94%
same,minimal effective dose,"Swiss-Webster male mice [1]; Mus musculus, ip, read-out: MAST LI LAD",3 mg/kg
same,ED50,male Swiss-Webster mice,6.9 mg/kg
same,MAST ST LAD,Swiss-Webster male mice [2],>100 mg/kg
